Laboratory results from patent publication US9980973B2, “Bicyclic heterocycle compounds and their uses in therapy” (ASTEX THERAPEUTICS LIMITED, priority 2012, dated 2018).
Counter-ions that a name gives are not always drawn. Like-named read-outs stand apart in the source and are kept apart here.

What was measured:
[1] = tested on: EVSA-T (human breast carcinoma); test: Anti-proliferative activity, Alamar Blue assay, EVSA-T; assay type: cell-based
[2] = biological target: T1, BIR3 domain of human cIAP-1 (Homo sapiens, UniProt Q13490); test: cIAP-1 in vitro competitive displacement binding assay (fluorescence polarization); conditions: PI at […]
T1 construct: human cIAP-1 (residues 267-363) fused to a GST-tag; GST-tag (cleaved yes); made in house; host or cells: Escherichia coli
T1 sequence (Q13490 267-363): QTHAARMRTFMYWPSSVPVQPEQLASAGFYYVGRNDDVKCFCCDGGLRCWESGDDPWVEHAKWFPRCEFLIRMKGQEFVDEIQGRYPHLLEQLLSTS

[3] = biological target: T2, BIR3 domain of human XIAP (Homo sapiens, UniProt P98170); test: XIAP in vitro competitive displacement binding assay (fluorescence polarization); conditions: for inhibition at 0.04 µM: 1 h, read-out: Xiap IC50 or PI μM (PI); for inhibition at 0.04 µM / Xiap IC50 or PI μM (PI): PI at 0.04 μM
T2 construct: BIR3 domain of human XIAP (residues 252-350) fused to a His-tag; His-tag (cleaved yes); made in house; host or cells: Escherichia coli
T2 sequence (P98170 252-350): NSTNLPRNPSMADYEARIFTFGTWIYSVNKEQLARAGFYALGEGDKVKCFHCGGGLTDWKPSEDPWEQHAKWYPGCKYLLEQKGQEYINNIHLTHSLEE

[4] = EVSA-T cells, 72 hours, Alamar Blue, hydrochloride, read-out: EVSA-T prolif
[5] = plain number = IC50, average where more than one data point, read-out: Xiap IC50 or PI μM (IC50)
[6] = EVSA-T cells, 72 hours, Alamar Blue, dihydrochloride, read-out: EVSA-T prolif
[7] = Homo sapiens, EVSA-T, read-out: EC50 in EVSA-T cell line assays
[8] = or at least 50% inhibition of the activity at 0.1 μM, read-out: IC50 in the XIAP assay
[9] = 60 min, dihydrochloride, 0.04 µM
[10] = EVSA-T cells, 72 hours, Alamar Blue, read-out: EVSA-T prolif
[11] = Homo sapiens, EVSA-T, 72 h, EVSA-T cells, 72 hours, Alamar Blue, read-out: EVSA-T prolif

For `C[C@@H]1CN(CC(=O)N2CC(C)(C)c3ncc(Cc4ccc(F)cc4)cc32)[C@@H](CN2CCCCC2C(F)(F)F)CN1` (single isomer, unassigned) [Example 26, 1-{6-[(4-Fluorophenyl)methyl]-3,3-dimethyl-1H,2H,3H-pyrrolo[3,2-b]pyridin-1-yl}-2-[(2R,5R)-5-methyl-2-{[2-([R or S]trifluoromethyl)piperidin-1-yl]methyl}piperazin-1-yl]ethan-1-one hydrochloride], the EC50 [1, 4] was 120 nM, the “cIAP1 IC50 or PI μM (PI)” value ([2]; 180 min, hydrochloride, […]) was 94%@0.012 and the IC50 [3, 5] was 0.21 µM.

For `C[C@@H]1CN(CC(=O)N2CC(C)(C)c3ncc(Cc4ccc(F)cc4)cc32)[C@@H](CN2CCOCC2C(F)(F)F)CN1` (single isomer, unassigned) [Example 27, 1-{6-[(4-Fluorophenyl)methyl]-3,3-dimethyl-1H,2H,3H-pyrrolo[3,2-b]pyridin-1-yl}-2-[(2R,5R)-5-methyl-2-{[3-([R or S]trifluoromethyl)morpholin-4-yl]methyl}piperazin-1-yl]ethan-1-one hydrochloride], the EC50 [1, 4] was 15 nM, the “cIAP1 IC50 or PI μM (PI)” value ([2]; 180 min, hydrochloride, […]) was 90%@0.012 and the IC50 [3, 5] was 0.13 µM.

In the case of `COCC1(C)COCCN1C[C@H]1CN[C@H](C)CN1CC(=O)N1CC(C)(C)c2ncc(Cc3ccc(F)cc3)cc21` (single isomer, unassigned) [Example 100, dihydrochloride], the EC50 [1, 6] is reported as 0.92 nM, the EC50 [1, 7] is reported as under 1000 nM and the “cIAP1 IC50 or PI μM (PI)” value ([2]; 180 min, dihydrochloride, […]) is reported as 99%@0.012. It also gave an inhibition at 0.04 µM [3] of 56% and an IC50 [3, 8] of under 0.1 µM.

`C[C@@H]1CN(CC(=O)N2CC(C)(C)c3ncc(C(O)c4cccc(F)c4)cc32)[C@@H](CN2[C@H](C)COC[C@H]2C)CN1` (single isomer, unassigned) [Example 106, 2-[(2R,5R)-2-{[(3R,5R)-3,5-Dimethylmorpholin-4-yl]methyl}-5-methylpiperazin-1-yl]-1-{6-[(R or S)-(3-fluorophenyl)-(hydroxy)methyl]-3,3-dimethyl-1H,2H,3H-pyrrolo[3,2-b]pyridin-1-yl}ethan-1-one dihydrochloride] was tested, and the EC50 [1, 6] was 4.3 nM, the “cIAP1 IC50 or PI μM (PI)” value ([2]; 180 min, dihydrochloride, […]) was 88%@0.012 and the “Xiap IC50 or PI μM (PI)” value [3, 9] was 42%@0.04.

For `C[C@@H]1CN(CC(=O)N2CC(C)(C)c3ncc(C(O)c4ccccc4F)cc32)[C@@H](CN2[C@H](C)COC[C@H]2C)CN1` (single isomer, unassigned) [Example 108, 2-[(2R,5R)-2-{[(3R,5R)-3,5-Dimethylmorpholin-4-yl]methyl}-5-methylpiperazin-1-yl]-1-{6-[(R or S)-(2-fluorophenyl)-(hydroxy)methyl]-3,3-dimethyl-1H,2H,3H-pyrrolo[3,2-b]pyridin-1-yl}ethan-1-one dihydrochloride], the EC50 [1, 6] was 2.7 nM, the “cIAP1 IC50 or PI μM (PI)” value ([2]; 180 min, dihydrochloride, […]) was 97%@0.012 and the “Xiap IC50 or PI μM (PI)” value [3, 9] was 66%@0.04.

`C[C@@H]1CN(CC(=O)N2CC(C)(C)c3ncc(C(O)c4cccc(F)c4F)cc32)[C@@H](CN2[C@H](C)COC[C@H]2C)CN1` (single isomer, unassigned) [Example 112, (R or S)-1-{6-[(2,3-Difluorophenyl)(hydroxy)meth-yl]-3,3-dimethyl-1H,2H,3H-pyrrolo[3,2-b]pyridin-1-yl}-2-[(2R,5R)-2-{[(3R,5R)-3,5-dimethylmorpholin-4-yl]methyl}-5-methylpiperazin-1-yl]ethan-1-one dihdrochloride] was tested, and the EC50 [1, 10] was 20 nM, the “cIAP1 IC50 or PI μM (PI)” value ([2]; 180 min, […]) was 90%@0.012 and the “Xiap IC50 or PI μM (PI)” value ([3]; 60 min, 0.04 µM) was 47%@0.04.

With `C[C@@H]1CN(CC(=O)N2CC(C)(C)c3cnc(Cc4ccc(F)cc4)cc32)[C@@H](CN2CCOC[C@]2(C)CO)CN1.Cl.Cl` [Example 61, 1-{6-[(4-Fluorophenyl)methyl]-3,3-dimethyl-1H,2H,3H-pyrrolo[3,2-c]pyridin-1-yl}-2-[(2R,5R)-2-{[(3S)-3-(hydroxymethyl)-3-methylmorpholin-4-yl]methyl}-5-methylpiperazin-1-yl]ethan-1-one, dihydrochloride] the EC50 [1, 10] was 6 nM, the “cIAP1 IC50 or PI μM (PI)” value [2] was 99%@0.012 and the “Xiap IC50 or PI μM (PI)” value [3] was 57%@0.04.

For `C[C@@H]1CN(CC(=O)N2CC(C)(C)c3cc(C#N)c(Cc4ccc(F)cc4)cc32)[C@@H](CN2[C@H](C)COC[C@H]2C)CN1` [Example 92, 1-{2-[(2R,5R)-2-{[(3R,5R)-3,5-Dimethylmorpholin-4-yl]methyl}-5-methylpiperazin-1-yl]acetyl}-6-[(4-fluroophenyl)methyl]-3,3-dimethyl-2,3-dihydro-1H-indole-5-carbonitrile dihydrochloride], the EC50 [1, 11] was 2.7 nM, the EC50 [1, 7] was under 1000 nM and the inhibition at 0.04 µM [3] was 54%.

Molecule `COC[C@@H]1COCCN1C[C@H]1CN[C@H](C)CN1CC(=O)N1CC(C)(C)c2cnc(Cc3ccc(F)cc3)cc21` [Example 96, 1-{6-[(4-Fluorophenyl)methyl]-3,3-dimethyl-1H,2H,3H-pyrrolo[3,2-c]pyridin-1-yl}-2-[(2R,5R)-2-{[(3R)-3-(methoxymethyl)morpholin-4-yl]methyl}-5-methylpiperazin-1-yl]ethan-1-one dihydrochloride] has an EC50 [1, 11] of 1.7 nM, an EC50 [1, 7] of under 1000 nM and an inhibition at 0.04 µM [3] of 49%.

`COC[C@]1(C)COCCN1C[C@H]1CN[C@H](C)CN1CC(=O)N1CC(C)(C)c2cnc(Cc3ccc(F)cc3F)cc21` [Example 97, 1-{6-[(2,4-Difluorophenyl)methyl]-3,3-dimethyl-1H,2H,3H-pyrrolo[3,2-c]pyridin-1-yl}-2-[(2R,5R)-2-{[(3R)-3-(methoxymethyl)-3-methylmorpholin-4-yl]methyl}-5-methylpiperazin-1-yl]ethan-1-one dihydrochloride] showed an EC50 [1, 11] of 2.3 nM, an EC50 [1, 7] of under 1000 nM and an inhibition at 0.04 µM [3] of 44%.

`COC[C@@]1(C)COCCN1C[C@H]1CN[C@H](C)CN1CC(=O)N1CC(C)(C)c2cnc(Cc3ccc(F)cc3F)cc21` [Example 98, 1-{6-[(2,4-Difluorophenyl)methyl]-3,3-dimethyl-1H,2H,3H-pyrrolo[3,2-c]pyridin-1-yl}-2-[(2R,5R)-2-{[(3S)-3-(methoxymethyl)-3-methylmorpholin-4-yl]methyl}-5-methylpiperazin-1-yl]ethan-1-one dihydrochloride] gave an EC50 [1, 11] of 7.3 nM, an EC50 [1, 7] of under 1000 nM and an inhibition at 0.04 µM [3] of 62%. It also gave an IC50 [3, 8] of under 0.1 µM.
